Literature values as cited in US20250099551A1, “THERMOSTABLE FORMULATION OF A21G HUMAN INSULIN” (priority 2018, published 2025).

Conditions: 25° C.

SMILES	Metal binding stability constant log K for zinc
O=C(O)CN(CCOCCOCCN(CC(=O)O)CC(=O)O)CC(=O)O [EGTA]	12.6
O=C(O)CN(CCN(CC(=O)O)CC(=O)O)CC(=O)O [EDTA]	14.5
N[C@@H](Cc1c[nH]cn1)C(=O)O [histidine]	6.91
O=C(O)CC(O)(CC(=O)O)C(=O)O [citrate]	4.93
